The target of this assay is T1, human GPR119 (hGPR119) (Homo sapiens, UniProt Q8TDV5).
T1 construct: expressed in transfected cells
T1 sequence (Q8TDV5 1-335): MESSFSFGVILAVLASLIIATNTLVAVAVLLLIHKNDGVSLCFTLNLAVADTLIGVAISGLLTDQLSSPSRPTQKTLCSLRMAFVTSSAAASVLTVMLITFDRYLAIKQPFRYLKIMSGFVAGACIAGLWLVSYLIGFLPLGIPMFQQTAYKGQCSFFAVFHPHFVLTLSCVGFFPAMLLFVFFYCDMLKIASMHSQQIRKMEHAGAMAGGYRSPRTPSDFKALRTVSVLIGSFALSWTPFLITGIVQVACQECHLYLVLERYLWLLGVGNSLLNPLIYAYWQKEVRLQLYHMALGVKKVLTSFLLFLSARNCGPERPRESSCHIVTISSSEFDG
Nature of the assay: cAMP accumulation assay (cAMP Gs dynamic HTRF kit). Type of assay: cell-based. The note with it: CHO-K1 cells stably expressing hGPR119, 4-parameter fit; for Emax: 1 h, % activity normalized to Max/Min controls; for EC50: cAMP accumulation. The essentials:
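Read-out is HTRF 665/620 nm ratio after 1 h detection at ambient temperature, converted to % activity against positive and negative controls, EC50 and Max activity by 4-parameter fit. Compounds were titrated onto ~10,000 thawed hGPR119-CHO-K1 cells/well for 60 min at 37° C/5% CO2.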
A general note: cAMP levels reflect the balance of adenylyl cyclase and phosphodiesterase activity.

A value given as a limit tells only on which side of the number the result lay.

On to `O=C(Cc1ccc(OCCCC2CCN(c3ncc(Cl)cn3)CC2)cc1F)NCCCCCC(=O)NC(CO)CO` [Example 17, 6-[[2-[4-[3-[1-(5-chloropyrimidin-2-yl)-4-piperidyl]propoxy]-2-fluoro-phenyl]acetyl]amino]-N-[2-hydroxy-1-(hydroxymethyl)ethyl]hexanamide], for which the Emax (in general, the size of the effect at its maximum, as opposed to the concentration needed) is at least 130% and the EC50 (as a rule, the concentration that produces a half-maximal response) is 100 to 1000 nM.

`O=C(Cc1ccc(OCCC2CC(C3CCN(c4ncc(Cl)cn4)CC3)C2)cc1F)N1CC(CNC[C@H](O)[C@@H](O)[C@H](O)[C@H](O)CO)C1` (stereo partly drawn) [Example 123, 2-[4-[2-[3-[1-(5-chloropyrimidin-2-yl)-4-piperidyl]cyclobutyl]ethoxy]-2-fluoro-phenyl]-1-[3-[[[(2S,3R,4R,5R)-2,3,4,5,6-pentahydroxyhexyl]amino]methyl]azetidin-1-yl]ethanone]: the Emax lay within 100 to 130% and the EC50 was 100 to 1000 nM.

For `CCc1cnc(N2CCC(CCOCc3ccc(CC(=O)N4CC(CNC[C@@H](O)[C@H](O)[C@@H](O)[C@@H](O)CO)C4)c(F)c3)CC2)nc1` [Example 88], the Emax was 50 to 100% and the EC50 is 1000 to 10000 nM.

As for `O=C(Cc1ccc(OCCCC2CCN(c3ncc(Cl)cn3)CC2)cc1F)N1CC(CN2C[C@H](O)[C@@H](O)C2)C1` (stereo in doubt) [Example 46, 2-[4-[3-[1-(5-chloropyrimidin-2-yl)-4-piperidyl]propoxy]-2-fluoro-phenyl]-1-[3-[[rac-(3S,4S)-3,4-dihydroxypyrrolidin-1-yl]methyl]azetidin-1-yl]ethanone], the Emax was in the range of 100 to 130% and the EC50 is at most 100 nM.

The compound `O=C(Cc1ccc(OCCCC2CCN(c3ncc(Cl)cn3)CC2)cc1F)N1CCC(O)(C(=O)NCC(CO)(CO)CO)C1` (stereo not drawn) [Example 182, 1-[2-[4-[3-[1-(5-chloropyrimidin-2-yl)-4-piperidyl]propoxy]-2-fluoro-phenyl]acetyl]-3-hydroxy-N-[3-hydroxy-2,2-bis (hydroxymethyl)propyl]pyrrolidine-3-carboxamide] registered an Emax of 100 to 130% and an EC50 of at most 100 nM.

`COCc1cnc(N2CCC(CCCOc3cc(F)c(CC(=O)N4CC[C@H](C(=O)NC[C@H](O)[C@@H](O)[C@H](O)[C@H](O)CO)C4)c(F)c3)CC2)nc1` [Example 131, (3S)-1-[2-[2,6-difluoro-4-[3-[1-[5-(methoxymethyl)pyrimidin-2-yl]-4-piperidyl]propoxy]phenyl]acetyl]-N-[(2S,3R,4R,5R)-2,3,4,5,6-pentahydroxyhexyl]pyrrolidine-3-carboxamide] registered an Emax of 100 to 130% and an EC50 of at most 100 nM.

In the case of `CCc1cnc(N2CCC(CCCOc3ccc(CC(=O)N4CC(CNCC(O)(CO)CO)C4)c(F)c3)CC2)nc1` [Example 63, 1-(3-(((2,3-dihydroxy-2-(hydroxymethyl)propyl)amino)methyl)azetidin-1-yl)-2-(4-(3-(1-(5-ethylpyrimidin-2-yl)piperidin-4-yl)propoxy)-2-fluorophenyl)ethan-1-one], the Emax is at least 130% and the EC50 is at most 100 nM.

`CC(C)OC(=O)N1CCC2(CCC2CCOc2ccc(CC(=O)N3CC(CNC[C@H](O)[C@@H](O)[C@H](O)[C@H](O)CO)C3)c(F)c2)CC1` (stereo partly drawn) [Example 140, isopropyl 3-[2-[3-fluoro-4-[2-oxo-2-[3-[[[(2S,3R,4R,5R)-2,3,4,5,6-pentahydroxyhexyl]amino]methyl]azetidin-1-yl]ethyl]phenoxy]ethyl]-7-azaspiro[3.5]nonane-7-carboxylate] registered an Emax of under 50% and an EC50 of over 10000 nM.

`O=C(Cc1c(F)cc(OCCCC2CCN(c3ncc(Cl)cn3)CC2)cc1F)N1CC[C@@H](CNC[C@H](O)[C@@H](O)[C@H](O)[C@H](O)CO)C1` [Example 132, 2-[4-[3-[1-(5-chloropyrimidin-2-yl)-4-piperidyl]propoxy]-2,6-difluoro-phenyl]-1-[(3S)-3-[[[(2S,3R,4R,5R)-2,3,4,5,6-pentahydroxyhexyl]amino]methyl]pyrrolidin-1-yl]ethanone] gave an Emax of 100 to 130% and an EC50 of at most 100 nM.
